#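 At the GI50, growth is halved. TGI marks complete inhibition of growth.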
# What was measured:
# Experiment in all cases: NCI tumour cell line growth inhibition, 384-well format
# 786-0 renal = test system: 786-0 renal
# ACHN renal = test system: ACHN renal
# HCC-2998 colon = test system: HCC-2998 colon
# HCT-116 colon = test system: HCT-116 colon
# HOP-62 NSCLC = test system: HOP-62 NSCLC
# OVCAR-8 ovarian = test system: OVCAR-8 ovarian
# PC-3 prostate = test system: PC-3 prostate
# RXF 393 renal = test system: RXF 393 renal
# SF-268 CNS = test system: SF-268 CNS
# SK-MEL-28 melanoma = test system: SK-MEL-28 melanoma
# SNB-75 CNS = test system: SNB-75 CNS
# TK-10 renal = test system: TK-10 renal
# UACC-257 melanoma = test system: UACC-257 melanoma
Structure (SMILES),GI50 (786-0 renal) [µM],TGI (786-0 renal) [µM],GI50 (ACHN renal) [µM],TGI (ACHN renal) [µM],GI50 (HCC-2998 colon) [µM],TGI (HCC-2998 colon) [µM],GI50 (HCT-116 colon) [µM],TGI (HCT-116 colon) [µM],GI50 (HOP-62 NSCLC) [µM],TGI (HOP-62 NSCLC) [µM],GI50 (OVCAR-8 ovarian) [µM],TGI (OVCAR-8 ovarian) [µM],GI50 (PC-3 prostate) [µM],TGI (PC-3 prostate) [µM],GI50 (RXF 393 renal) [µM],TGI (RXF 393 renal) [µM],GI50 (SF-268 CNS) [µM],TGI (SF-268 CNS) [µM],GI50 (SK-MEL-28 melanoma) [µM],TGI (SK-MEL-28 melanoma) [µM],other results
O=C(Nc1cnn2ccc(N3CCC[C@@H]3c3cc(F)ccc3F)nc12)N1CC[C@H](O)C1,> 100,> 100,> 100,> 100,> 100,> 100,> 100,> 100,> 100,> 100,> 100,> 100,> 100,> 100,> 100,> 100,> 100,> 100,> 100,> 100,GI50 (SNB-75 CNS): > 100 µM; TGI (SNB-75 CNS): > 100 µM; GI50 (TK-10 renal): > 100 µM; TGI (TK-10 renal): > 100 µM; GI50 (UACC-257 melanoma): > 100 µM; TGI (UACC-257 melanoma): > 100 µM
COc1ncc(-c2nc3c(n2C(C)C)[C@H](c2ccc(Cl)cc2)N(c2cc(Cl)cn(C)c2=O)C3=O)c(OC)n1,62.7,> 100,13.1,47.8,65.7,> 100,18.2,> 100,> 51,> 100,66.1,> 100,39.7,> 100,35.5,> 89.3,> 50.5,> 77.9,> 62.3,> 100,GI50 (SNB-75 CNS): > 52.2 µM; TGI (SNB-75 CNS): > 100 µM; GI50 (TK-10 renal): > 68.4 µM; TGI (TK-10 renal): > 100 µM; GI50 (UACC-257 melanoma): 17.5 µM; TGI (UACC-257 melanoma): 37.3 µM
